ChEMBL document CHEMBL4725259 (Bioorg Med Chem, 2020)
Activity calls are given as the source filed them. No cut-off for these calls is given here.

Assays:
[1] = tested on: U2OS; experiment: Agonist activity at NPSR1B in human U2OS cells at 20 uM by PathHunter beta-arrestin assay relative to control; assay type: cell-based
[2] = molecular target: T1, Vasopressin V2 receptor (Homo sapiens, UniProt P30518); experiment: Antagonist activity at human AVPR2 at 20 uM by PathHunter beta-arrestin assay relative to control
T1 sequence (P30518 whole entry): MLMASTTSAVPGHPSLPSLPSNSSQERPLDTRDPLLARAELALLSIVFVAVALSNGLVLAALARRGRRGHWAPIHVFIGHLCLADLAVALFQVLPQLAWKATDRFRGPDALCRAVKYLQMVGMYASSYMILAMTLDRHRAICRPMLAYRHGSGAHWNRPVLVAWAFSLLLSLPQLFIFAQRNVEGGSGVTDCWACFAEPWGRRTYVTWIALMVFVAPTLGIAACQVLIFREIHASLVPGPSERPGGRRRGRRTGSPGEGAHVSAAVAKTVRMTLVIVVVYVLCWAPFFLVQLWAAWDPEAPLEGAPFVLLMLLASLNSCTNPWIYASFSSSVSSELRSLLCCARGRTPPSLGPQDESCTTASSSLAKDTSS

[3] = molecular target: T2, Prolactin-releasing peptide receptor (Homo sapiens, UniProt P49683); experiment: Antagonist activity at human PRLHR expressed in CHO-K1 cells by PathHunter beta-arrestin assay; assay type: cell-based
T2 sequence (P49683 whole entry): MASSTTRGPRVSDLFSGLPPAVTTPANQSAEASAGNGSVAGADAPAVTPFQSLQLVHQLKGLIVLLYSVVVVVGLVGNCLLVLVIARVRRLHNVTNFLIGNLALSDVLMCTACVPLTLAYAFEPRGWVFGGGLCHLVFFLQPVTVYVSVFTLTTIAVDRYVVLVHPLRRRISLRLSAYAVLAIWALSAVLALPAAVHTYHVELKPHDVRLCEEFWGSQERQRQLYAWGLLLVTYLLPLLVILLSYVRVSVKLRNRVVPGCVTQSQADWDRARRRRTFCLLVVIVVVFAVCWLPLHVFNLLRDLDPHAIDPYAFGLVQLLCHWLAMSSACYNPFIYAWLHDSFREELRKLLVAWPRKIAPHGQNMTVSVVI

[4] = molecular target: T3, C-C chemokine receptor type 3 (Homo sapiens) (UniProt P51677); experiment: Antagonist activity at human CCR3 expressed in CHO-K1 cells at 20 uM by PathHunter beta-arrestin assay relative to control; assay type: cell-based
T3 sequence (whole entry): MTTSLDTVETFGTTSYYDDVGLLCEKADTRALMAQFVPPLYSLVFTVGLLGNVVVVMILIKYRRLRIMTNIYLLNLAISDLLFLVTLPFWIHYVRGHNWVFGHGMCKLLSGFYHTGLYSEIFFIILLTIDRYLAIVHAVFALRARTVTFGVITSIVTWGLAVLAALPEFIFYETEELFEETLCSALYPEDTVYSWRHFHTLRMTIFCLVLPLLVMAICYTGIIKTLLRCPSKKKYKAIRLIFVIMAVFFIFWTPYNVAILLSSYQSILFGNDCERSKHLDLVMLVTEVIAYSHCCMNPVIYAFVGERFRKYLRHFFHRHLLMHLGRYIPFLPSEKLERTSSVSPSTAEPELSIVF

[5] = molecular target: T4, C-C chemokine receptor type 8 (Homo sapiens, UniProt P51685); experiment: Antagonist activity at human CCR8 expressed in CHO-K1 cells at 20 uM by PathHunter beta-arrestin assay relative to control; assay type: cell-based; conditions: filed as antagonist
T4 sequence (P51685 whole entry): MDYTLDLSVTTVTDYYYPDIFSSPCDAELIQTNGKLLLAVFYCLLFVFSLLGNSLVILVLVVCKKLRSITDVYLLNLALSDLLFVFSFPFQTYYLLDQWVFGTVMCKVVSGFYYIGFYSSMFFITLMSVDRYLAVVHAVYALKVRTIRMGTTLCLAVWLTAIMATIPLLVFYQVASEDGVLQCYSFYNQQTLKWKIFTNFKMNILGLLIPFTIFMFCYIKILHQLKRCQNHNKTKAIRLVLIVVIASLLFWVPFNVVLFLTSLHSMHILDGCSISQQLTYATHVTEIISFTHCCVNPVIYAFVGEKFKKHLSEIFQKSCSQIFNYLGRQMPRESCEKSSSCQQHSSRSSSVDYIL

[6] = molecular target: T5, CX3C chemokine receptor 1 (Homo sapiens) (UniProt P49238); experiment: Agonist activity at human CX3CR1 expressed in CHO-K1 cells at 20 uM by PathHunter beta-arrestin assay relative to control; assay type: cell-based
T5 sequence (whole entry): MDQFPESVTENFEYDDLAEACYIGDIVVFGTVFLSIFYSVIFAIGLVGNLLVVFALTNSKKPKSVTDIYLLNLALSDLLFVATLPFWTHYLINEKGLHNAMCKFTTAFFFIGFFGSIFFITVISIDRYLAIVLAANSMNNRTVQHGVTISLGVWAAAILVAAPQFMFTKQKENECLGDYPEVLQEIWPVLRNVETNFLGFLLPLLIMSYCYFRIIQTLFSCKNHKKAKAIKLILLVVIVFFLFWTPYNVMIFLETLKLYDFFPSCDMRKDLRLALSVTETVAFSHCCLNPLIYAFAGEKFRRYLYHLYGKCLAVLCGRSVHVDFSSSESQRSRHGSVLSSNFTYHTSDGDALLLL

[7] = molecular target: T6, Follicle-stimulating hormone receptor (Homo sapiens, UniProt P23945); experiment: Antagonist activity at human FSHR expressed in CHO-K1 cells by PathHunter beta-arrestin assay; assay type: cell-based
T6 sequence (P23945 whole entry): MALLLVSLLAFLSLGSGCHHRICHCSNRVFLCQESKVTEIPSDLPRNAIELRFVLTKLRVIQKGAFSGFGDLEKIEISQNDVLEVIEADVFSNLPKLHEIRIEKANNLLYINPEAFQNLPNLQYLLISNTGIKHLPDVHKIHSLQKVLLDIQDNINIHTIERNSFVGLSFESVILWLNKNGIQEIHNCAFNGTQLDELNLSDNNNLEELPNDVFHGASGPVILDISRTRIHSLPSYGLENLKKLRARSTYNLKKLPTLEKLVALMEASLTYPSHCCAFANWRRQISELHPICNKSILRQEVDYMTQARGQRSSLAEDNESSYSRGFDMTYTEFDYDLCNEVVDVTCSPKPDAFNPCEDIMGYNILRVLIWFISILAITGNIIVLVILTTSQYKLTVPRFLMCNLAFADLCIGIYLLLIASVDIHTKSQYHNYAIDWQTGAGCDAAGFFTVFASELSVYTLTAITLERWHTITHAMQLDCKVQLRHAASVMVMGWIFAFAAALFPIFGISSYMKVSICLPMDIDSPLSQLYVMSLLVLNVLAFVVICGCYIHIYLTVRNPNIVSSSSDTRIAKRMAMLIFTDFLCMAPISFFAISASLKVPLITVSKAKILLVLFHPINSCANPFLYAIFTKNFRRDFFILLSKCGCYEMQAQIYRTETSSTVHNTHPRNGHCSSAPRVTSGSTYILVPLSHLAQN

[8] = Antagonist activity at NPSR1B in human U2OS cells by PathHunter beta-arrestin assay; assay type: cell-based
[9] = tested on: U2OS; experiment: Antagonist activity at NPSR1B in human U2OS cells at 20 uM by PathHunter beta-arrestin assay relative to control; assay type: cell-based
[10] = molecular target: T7, Follicle-stimulating hormone receptor (Homo sapiens) (UniProt P23945); experiment: Antagonist activity at human FSHR expressed in CHO-K1 cells at 20 uM by PathHunter beta-arrestin assay relative to control; assay type: cell-based; conditions: filed as antagonist
T7 sequence (whole entry): T6 sequence (P23945 whole entry)

[11] = molecular target: T1, Vasopressin V2 receptor; experiment: Agonist activity at human AVPR2 at 20 uM by PathHunter beta-arrestin assay relative to control
[12] = molecular target: T8, Oxytocin receptor (Homo sapiens) (UniProt P30559); experiment: Antagonist activity at human OXTR expressed in CHO-K1 cells at 20 uM by PathHunter beta-arrestin assay relative to control; assay type: cell-based
T8 sequence (whole entry): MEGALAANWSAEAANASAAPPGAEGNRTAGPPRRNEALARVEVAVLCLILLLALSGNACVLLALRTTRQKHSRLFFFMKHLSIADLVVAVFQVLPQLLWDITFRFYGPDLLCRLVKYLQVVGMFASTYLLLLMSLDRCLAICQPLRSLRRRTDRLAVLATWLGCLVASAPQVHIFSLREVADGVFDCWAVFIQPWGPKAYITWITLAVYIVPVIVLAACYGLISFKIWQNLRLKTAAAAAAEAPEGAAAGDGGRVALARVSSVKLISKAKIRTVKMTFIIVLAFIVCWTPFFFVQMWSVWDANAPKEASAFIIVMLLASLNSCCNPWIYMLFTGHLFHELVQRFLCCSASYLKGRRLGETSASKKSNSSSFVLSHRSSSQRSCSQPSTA

[13] = molecular target: D(2) dopamine receptor (Homo sapiens) (UniProt P14416); experiment: Agonist activity at human DRD2L expressed in CHO-K1 cells at 20 uM by PathHunter beta-arrestin assay relative to control; assay type: cell-based
Sequence of D(2) dopamine receptor (Homo sapiens) (P14416 whole entry): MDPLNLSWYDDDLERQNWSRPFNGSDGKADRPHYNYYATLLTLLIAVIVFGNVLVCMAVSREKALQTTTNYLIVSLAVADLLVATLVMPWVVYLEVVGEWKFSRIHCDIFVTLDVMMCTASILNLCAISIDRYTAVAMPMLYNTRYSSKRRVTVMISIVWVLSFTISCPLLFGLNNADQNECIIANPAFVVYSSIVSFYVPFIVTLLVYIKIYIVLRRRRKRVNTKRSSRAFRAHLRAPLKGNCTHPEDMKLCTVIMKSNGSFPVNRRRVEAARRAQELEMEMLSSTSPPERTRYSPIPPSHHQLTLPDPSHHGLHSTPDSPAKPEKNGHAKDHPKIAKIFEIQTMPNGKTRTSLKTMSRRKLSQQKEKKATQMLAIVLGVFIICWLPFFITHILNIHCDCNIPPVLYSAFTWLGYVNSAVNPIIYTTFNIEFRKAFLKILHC

[14] = molecular target: T3, C-C chemokine receptor type 3 (Homo sapiens); experiment: Agonist activity at human CCR3 expressed in CHO-K1 cells at 20 uM by PathHunter beta-arrestin assay relative to control; assay type: cell-based
[15] = molecular target: T9, Prolactin-releasing peptide receptor (Homo sapiens) (UniProt P49683); experiment: Agonist activity at human PRLHR expressed in CHO-K1 cells at 20 uM by PathHunter beta-arrestin assay relative to control; assay type: cell-based
T9 sequence (whole entry): T2 sequence (P49683 whole entry)

[16] = molecular target: T9, Prolactin-releasing peptide receptor (Homo sapiens); experiment: Antagonist activity at human PRLHR expressed in CHO-K1 cells at 20 uM by PathHunter beta-arrestin assay relative to control; assay type: cell-based; conditions: filed as antagonist
[17] = molecular target: D(2) dopamine receptor (Homo sapiens) (UniProt P14416); experiment: Antagonist activity at human DRD2L expressed in CHO-K1 cells at 20 uM by PathHunter beta-arrestin assay relative to control; assay type: cell-based
[18] = molecular target: T10, C-X-C chemokine receptor type 4 (Homo sapiens, UniProt P61073); experiment: Antagonist activity at human CXCR4 expressed in mouse C2C12 cells at 20 uM by PathHunter beta-arrestin assay relative to control; assay type: cell-based; conditions: filed as antagonist
T10 sequence (P61073 whole entry): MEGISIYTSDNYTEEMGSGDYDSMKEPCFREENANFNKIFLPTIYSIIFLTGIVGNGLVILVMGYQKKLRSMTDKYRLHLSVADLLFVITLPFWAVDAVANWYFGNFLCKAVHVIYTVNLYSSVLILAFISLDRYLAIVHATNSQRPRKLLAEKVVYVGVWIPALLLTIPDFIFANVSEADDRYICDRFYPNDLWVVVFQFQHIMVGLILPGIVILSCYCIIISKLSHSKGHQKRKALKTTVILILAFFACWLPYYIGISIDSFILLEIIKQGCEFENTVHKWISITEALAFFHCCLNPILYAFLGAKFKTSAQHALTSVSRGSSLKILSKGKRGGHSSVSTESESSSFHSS

[19] = molecular target: T5, CX3C chemokine receptor 1 (Homo sapiens); experiment: Antagonist activity at human CX3CR1 expressed in CHO-K1 cells at 20 uM by PathHunter beta-arrestin assay relative to control; assay type: cell-based; conditions: filed as antagonist
[20] = molecular target: T8, Oxytocin receptor (Homo sapiens); experiment: Agonist activity at human OXTR expressed in CHO-K1 cells at 20 uM by PathHunter beta-arrestin assay relative to control; assay type: cell-based
[21] = molecular target: T10, C-X-C chemokine receptor type 4; experiment: Agonist activity at human CXCR4 expressed in mouse C2C12 cells at 20 uM by PathHunter beta-arrestin assay relative to control; assay type: cell-based
[22] = molecular target: T4, C-C chemokine receptor type 8; experiment: Agonist activity at human CCR8 expressed in CHO-K1 cells at 20 uM by PathHunter beta-arrestin assay relative to control; assay type: cell-based
[23] = molecular target: T7, Follicle-stimulating hormone receptor (Homo sapiens); experiment: Agonist activity at human FSHR expressed in CHO-K1 cells at 20 uM by PathHunter beta-arrestin assay relative to control; assay type: cell-based
[24] = molecular target: T11, Oxytocin receptor (Homo sapiens, UniProt P30559); experiment: Antagonist activity at human OXTR expressed in CHO-K1 cells by PathHunter beta-arrestin assay; assay type: cell-based
T11 sequence (P30559 whole entry): T8 sequence (whole entry)

| SMILES | Activity [1] | inhibition ([2]; filed as antagonist) | inhibition [5] | Activity [6] | inhibition [10] | Activity [11] | inhibition [12] | Activity [13] | Activity [14] | Activity [15] | inhibition [16] | inhibition [19] | Activity [20] | Activity [21] | Activity [22] | Activity [23] | also measured |
| --- | --- | --- | --- | --- | --- | --- | --- | --- | --- | --- | --- | --- | --- | --- | --- | --- | --- |
| COC(=O)[C@@H]1[C@H]2C[C@@H](OCc3ccc(Br)cc3)c3[nH]c4ccccc4c3CCN(C#N)C[C@@H]2CC[C@@H]1O | inactive | 1% | 78% | inactive | 94% | inactive | -7% | inactive | inactive | inactive | 82% | 53% | inactive | inactive | inactive | inactive | IC50 [3]: 4.89 µM; inhibition ([4]; filed as antagonist): 50%; IC50 [7]: 8.03 µM; IC50 [8]: 10.3 µM; inhibition ([9]; filed as antagonist): 87%; inhibition ([17]; filed as antagonist): 10%; inhibition [18]: 29% |
| COC(=O)[C@@H]1[C@H]2C[C@@H]3OCc4ccccc4-n4c3c(c3ccccc34)CCN(C#N)C[C@@H]2CC[C@@H]1O | inactive | 16% | 15% | inactive | 5% | inactive | – | inactive | inactive | inactive | 5% | 20% | inactive | inactive | inactive | inactive | inhibition ([4]; filed as antagonist): 2%; inhibition ([12]; filed as antagonist): 27%; inhibition ([17]; filed as antagonist): 3% |
| COC(=O)[C@@H]1[C@H]2C[C@H]3c4[nH]c5ccccc5c4CCN3C[C@@H]2CC[C@@H]1O | inactive | – | – | inactive | 4% | inactive | – | inactive | inactive | inactive | – | 22% | inactive | inactive | inactive | inactive | inhibition [2]: -1%; inhibition [9]: -3%; inhibition ([12]; filed as antagonist): 5% |
| Cc1ccccc1N1CCN(S(=O)(=O)CC23CCC(C[C@@H]2NC(=O)[C@@H](N)CCS(C)(=O)=O)C3(C)C)CC1 (some centres undefined) | – | – | – | – | – | – | – | – | – | – | – | – | – | – | – | – | IC50 [24]: 0.00462 µM |
| COC(=O)[C@@H]1[C@H]2C[C@@H]3N(CC[C@@]34C(=O)N(c3cncc(OC)n3)c3ccccc34)C[C@@H]2CC[C@@H]1O | inactive | 9% | 9% | inactive | 11% | inactive | – | inactive | inactive | inactive | 2% | 9% | inactive | inactive | inactive | inactive | inhibition [4]: -7%; inhibition [17]: -8% |
| COC(=O)[C@@H]1[C@H]2C[C@@H]([C@@]3(CCn4cc(CCCCO)nn4)C(=O)Nc4ccccc43)N(C#N)C[C@@H]2CC[C@@H]1O | inactive | 1% | 5% | inactive | 2% | inactive | 0% | inactive | inactive | inactive | 9% | 11% | inactive | inactive | inactive | inactive | – |
| COC(=O)[C@@H]1[C@H]2C[C@H]3OCc4ccccc4-n4c3c(c3ccccc34)CCN(C#N)C[C@@H]2CC[C@@H]1O | inactive | – | 10% | inactive | 12% | inactive | 0% | inactive | inactive | inactive | – | 9% | inactive | inactive | inactive | inactive | inhibition [2]: -1%; inhibition [4]: -2%; inhibition ([9]; filed as antagonist): 1%; inhibition [17]: -2%; inhibition [18]: 10% |
